According to article PMC11345841, “Exploring 2-Sulfonylpyrimidine Warheads as Acrylamide Surrogates for Targeted Covalent Inhibition: A BTK Story” (Journal of Medicinal Chemistry, 2024):
Read-outs that look alike come from different tables or passages of the source.

What was measured:
[1] = molecular target: T1, ABL1(M351T)-phosphorylated (Homo sapiens, UniProt P00519, M351T); test: KINOMEscan ScanTK; assay type: binding
T1 construct: purchased Eurofins DiscoverX KINOMEscan (scanTK)

[2] = molecular target: T2, ABL1(Q252H)-phosphorylated (Homo sapiens, UniProt P00519, Q252H); test: KINOMEscan ScanTK; assay type: binding; conditions: for difference in %Control versus reference Ib at 1 µM: read-out: % difference (compound - Ib %Control)
T2 construct: purchased Eurofins DiscoverX KINOMEscan (scanTK)

BLK = molecular target: T3, BLK (Homo sapiens, UniProt P51451); test: KINOMEscan ScanTK; assay type: binding; conditions: for difference in %Control vs reference Ib at 1 µM / remaining binding at 1 µM: BLK; for difference in %Control vs reference Ib at 1 µM: read-out: % difference (compound - Ib %Control)
T3 construct: purchased Eurofins DiscoverX KINOMEscan (scanTK)
T3 sequence (P51451 whole entry): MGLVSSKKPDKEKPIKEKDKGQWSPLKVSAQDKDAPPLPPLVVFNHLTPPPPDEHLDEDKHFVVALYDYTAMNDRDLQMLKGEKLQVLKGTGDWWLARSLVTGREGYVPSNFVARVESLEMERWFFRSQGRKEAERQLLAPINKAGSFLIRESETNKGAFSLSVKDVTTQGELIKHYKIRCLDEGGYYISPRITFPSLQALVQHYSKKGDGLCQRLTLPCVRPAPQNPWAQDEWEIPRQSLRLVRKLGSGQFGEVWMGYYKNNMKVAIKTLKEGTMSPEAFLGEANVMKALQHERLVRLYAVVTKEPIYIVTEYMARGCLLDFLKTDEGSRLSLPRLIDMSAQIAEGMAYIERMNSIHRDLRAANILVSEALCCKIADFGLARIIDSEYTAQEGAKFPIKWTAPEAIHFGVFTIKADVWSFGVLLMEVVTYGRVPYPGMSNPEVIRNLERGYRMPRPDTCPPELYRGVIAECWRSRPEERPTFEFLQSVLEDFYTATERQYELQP

EGFR(L861Q) = molecular target: T4, EGFR(L861Q) (Homo sapiens, UniProt P00533, L861Q); test: KINOMEscan ScanTK; assay type: binding
T4 construct: purchased Eurofins DiscoverX KINOMEscan (scanTK)
T4 sequence (P00533 25-1210 L861Q): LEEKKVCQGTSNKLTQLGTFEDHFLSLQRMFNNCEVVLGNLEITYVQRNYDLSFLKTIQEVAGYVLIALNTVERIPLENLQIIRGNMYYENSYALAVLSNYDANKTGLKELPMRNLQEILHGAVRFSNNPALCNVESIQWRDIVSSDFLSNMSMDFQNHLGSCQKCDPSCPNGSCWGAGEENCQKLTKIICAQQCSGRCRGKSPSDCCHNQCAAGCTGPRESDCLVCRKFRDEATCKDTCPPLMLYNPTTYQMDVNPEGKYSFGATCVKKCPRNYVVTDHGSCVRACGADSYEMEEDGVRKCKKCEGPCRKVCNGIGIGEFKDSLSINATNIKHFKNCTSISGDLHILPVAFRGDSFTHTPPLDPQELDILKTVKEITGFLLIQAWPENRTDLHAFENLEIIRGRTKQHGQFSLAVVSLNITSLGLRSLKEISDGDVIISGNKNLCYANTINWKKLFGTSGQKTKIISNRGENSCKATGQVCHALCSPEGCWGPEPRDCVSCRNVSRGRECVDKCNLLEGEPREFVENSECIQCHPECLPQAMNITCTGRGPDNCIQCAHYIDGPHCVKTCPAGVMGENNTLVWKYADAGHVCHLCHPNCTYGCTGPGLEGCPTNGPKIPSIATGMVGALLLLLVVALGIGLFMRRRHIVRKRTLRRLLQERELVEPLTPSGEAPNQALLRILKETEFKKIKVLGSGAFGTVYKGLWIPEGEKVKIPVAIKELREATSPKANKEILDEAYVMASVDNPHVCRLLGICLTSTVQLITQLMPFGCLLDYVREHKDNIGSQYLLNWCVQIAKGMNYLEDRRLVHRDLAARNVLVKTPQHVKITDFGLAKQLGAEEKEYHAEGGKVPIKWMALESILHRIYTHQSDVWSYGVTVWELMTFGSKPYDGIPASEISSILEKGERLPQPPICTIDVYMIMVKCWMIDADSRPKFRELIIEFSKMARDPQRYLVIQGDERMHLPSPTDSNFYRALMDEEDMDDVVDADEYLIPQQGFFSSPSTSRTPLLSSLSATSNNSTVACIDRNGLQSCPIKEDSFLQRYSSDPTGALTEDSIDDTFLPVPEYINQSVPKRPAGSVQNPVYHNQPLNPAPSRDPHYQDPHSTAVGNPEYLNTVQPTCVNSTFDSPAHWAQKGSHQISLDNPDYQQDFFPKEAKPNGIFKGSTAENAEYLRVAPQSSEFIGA

FLT1 = molecular target: T5, FLT1 (Homo sapiens, UniProt P17948); test: KINOMEscan ScanTK; assay type: binding
T5 construct: purchased Eurofins DiscoverX KINOMEscan (scanTK)

FLT3 = molecular target: T6, FLT3 (Homo sapiens, UniProt P36888); test: KINOMEscan ScanTK; assay type: binding
T6 construct: purchased Eurofins DiscoverX KINOMEscan (scanTK)
T6 sequence (P36888 27-993): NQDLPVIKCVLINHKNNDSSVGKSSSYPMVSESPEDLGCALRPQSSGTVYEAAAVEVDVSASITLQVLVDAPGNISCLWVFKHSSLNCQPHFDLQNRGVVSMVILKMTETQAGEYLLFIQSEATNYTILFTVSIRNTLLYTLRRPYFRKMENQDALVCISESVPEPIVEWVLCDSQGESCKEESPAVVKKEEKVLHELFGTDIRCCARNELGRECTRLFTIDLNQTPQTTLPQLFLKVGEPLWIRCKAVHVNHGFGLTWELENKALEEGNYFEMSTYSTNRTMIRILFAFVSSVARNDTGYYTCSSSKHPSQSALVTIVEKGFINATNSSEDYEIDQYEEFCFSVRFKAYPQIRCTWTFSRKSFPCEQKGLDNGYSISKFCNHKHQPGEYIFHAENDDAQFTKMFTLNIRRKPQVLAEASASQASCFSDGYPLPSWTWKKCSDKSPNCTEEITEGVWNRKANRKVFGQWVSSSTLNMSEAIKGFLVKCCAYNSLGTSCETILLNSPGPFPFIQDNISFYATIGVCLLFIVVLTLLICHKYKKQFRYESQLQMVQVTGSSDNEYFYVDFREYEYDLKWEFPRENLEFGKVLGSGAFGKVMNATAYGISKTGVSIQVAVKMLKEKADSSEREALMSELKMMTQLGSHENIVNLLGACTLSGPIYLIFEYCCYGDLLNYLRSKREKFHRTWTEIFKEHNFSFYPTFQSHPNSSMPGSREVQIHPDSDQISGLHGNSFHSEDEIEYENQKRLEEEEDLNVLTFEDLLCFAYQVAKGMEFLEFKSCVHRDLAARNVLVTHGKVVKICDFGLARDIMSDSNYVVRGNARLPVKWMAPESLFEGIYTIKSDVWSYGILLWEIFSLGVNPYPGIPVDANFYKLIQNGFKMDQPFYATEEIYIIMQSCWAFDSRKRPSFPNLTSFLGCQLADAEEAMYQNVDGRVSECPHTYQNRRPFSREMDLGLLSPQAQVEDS

MERTK = molecular target: T7, MERTK (Homo sapiens, UniProt Q12866); test: KINOMEscan ScanTK; assay type: binding
T7 construct: purchased Eurofins DiscoverX KINOMEscan (scanTK)
T7 sequence (Q12866 21-999): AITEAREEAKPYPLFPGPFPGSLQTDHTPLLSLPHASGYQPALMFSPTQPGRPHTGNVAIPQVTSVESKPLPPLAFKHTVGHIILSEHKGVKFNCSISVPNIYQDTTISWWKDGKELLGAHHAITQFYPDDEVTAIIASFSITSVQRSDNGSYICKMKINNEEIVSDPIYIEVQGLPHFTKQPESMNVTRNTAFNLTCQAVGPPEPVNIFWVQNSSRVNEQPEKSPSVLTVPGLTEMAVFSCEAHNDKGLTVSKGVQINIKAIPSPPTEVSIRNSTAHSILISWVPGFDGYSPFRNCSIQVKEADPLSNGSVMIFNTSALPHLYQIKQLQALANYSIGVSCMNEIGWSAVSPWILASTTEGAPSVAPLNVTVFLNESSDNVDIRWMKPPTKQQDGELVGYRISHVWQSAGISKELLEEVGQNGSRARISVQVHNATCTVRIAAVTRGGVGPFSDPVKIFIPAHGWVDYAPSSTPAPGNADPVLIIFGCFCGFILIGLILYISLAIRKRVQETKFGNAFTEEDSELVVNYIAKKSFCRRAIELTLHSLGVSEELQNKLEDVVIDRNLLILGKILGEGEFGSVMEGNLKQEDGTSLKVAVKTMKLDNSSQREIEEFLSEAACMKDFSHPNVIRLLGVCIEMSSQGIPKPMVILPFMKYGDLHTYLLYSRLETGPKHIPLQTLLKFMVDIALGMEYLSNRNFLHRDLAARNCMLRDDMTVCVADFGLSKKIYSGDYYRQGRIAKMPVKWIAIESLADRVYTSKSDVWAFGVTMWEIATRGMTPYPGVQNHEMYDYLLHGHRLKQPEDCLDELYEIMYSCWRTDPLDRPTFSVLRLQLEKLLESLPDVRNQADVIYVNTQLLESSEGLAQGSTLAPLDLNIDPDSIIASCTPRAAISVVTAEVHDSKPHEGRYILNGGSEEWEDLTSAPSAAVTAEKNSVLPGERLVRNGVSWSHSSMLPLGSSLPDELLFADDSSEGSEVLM

MET(M1250T) = molecular target: T8, MET(M1250T) (Homo sapiens, UniProt P08581, M1250T); test: KINOMEscan ScanTK; assay type: binding
T8 construct: purchased Eurofins DiscoverX KINOMEscan (scanTK)
T8 sequence (P08581 25-1390 M1250T): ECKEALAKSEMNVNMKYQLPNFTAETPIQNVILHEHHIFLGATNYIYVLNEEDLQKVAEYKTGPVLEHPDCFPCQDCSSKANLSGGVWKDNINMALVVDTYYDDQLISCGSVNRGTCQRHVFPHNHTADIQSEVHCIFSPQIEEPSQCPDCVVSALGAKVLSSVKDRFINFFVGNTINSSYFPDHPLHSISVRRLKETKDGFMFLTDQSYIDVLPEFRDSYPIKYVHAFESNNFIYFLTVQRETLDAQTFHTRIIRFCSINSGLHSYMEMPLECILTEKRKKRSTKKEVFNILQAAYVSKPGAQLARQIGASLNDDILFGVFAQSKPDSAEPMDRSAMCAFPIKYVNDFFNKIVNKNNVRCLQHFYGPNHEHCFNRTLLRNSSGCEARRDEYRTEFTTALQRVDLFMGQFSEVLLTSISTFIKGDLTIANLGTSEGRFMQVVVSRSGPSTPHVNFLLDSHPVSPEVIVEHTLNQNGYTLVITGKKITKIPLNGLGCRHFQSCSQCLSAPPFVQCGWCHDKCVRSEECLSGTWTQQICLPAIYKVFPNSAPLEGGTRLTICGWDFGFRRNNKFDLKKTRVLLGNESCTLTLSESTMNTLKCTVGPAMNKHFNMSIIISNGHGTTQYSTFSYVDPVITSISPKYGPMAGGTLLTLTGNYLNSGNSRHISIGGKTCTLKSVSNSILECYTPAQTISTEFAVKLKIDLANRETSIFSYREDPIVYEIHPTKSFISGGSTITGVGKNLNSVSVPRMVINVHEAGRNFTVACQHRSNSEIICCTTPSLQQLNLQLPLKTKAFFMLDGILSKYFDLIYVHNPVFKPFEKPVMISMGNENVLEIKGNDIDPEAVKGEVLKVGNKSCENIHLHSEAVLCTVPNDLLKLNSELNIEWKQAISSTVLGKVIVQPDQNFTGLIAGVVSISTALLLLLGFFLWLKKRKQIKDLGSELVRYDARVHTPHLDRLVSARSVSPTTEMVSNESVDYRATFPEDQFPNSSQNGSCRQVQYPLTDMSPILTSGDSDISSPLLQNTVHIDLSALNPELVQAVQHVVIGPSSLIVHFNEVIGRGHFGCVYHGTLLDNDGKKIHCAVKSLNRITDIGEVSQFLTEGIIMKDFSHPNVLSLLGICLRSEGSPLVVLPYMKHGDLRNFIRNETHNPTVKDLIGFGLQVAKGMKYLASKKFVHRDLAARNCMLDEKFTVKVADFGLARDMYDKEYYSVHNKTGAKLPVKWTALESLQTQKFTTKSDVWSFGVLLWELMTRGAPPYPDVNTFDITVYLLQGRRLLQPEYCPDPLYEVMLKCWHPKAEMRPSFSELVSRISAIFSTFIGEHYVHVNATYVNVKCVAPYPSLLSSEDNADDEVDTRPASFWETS

SRMS = molecular target: T9, SRMS (Homo sapiens, UniProt Q9H3Y6); test: KINOMEscan ScanTK; assay type: binding; conditions: for remaining binding at 1 µM: SRMS
T9 construct: purchased Eurofins DiscoverX KINOMEscan (scanTK)
T9 sequence (Q9H3Y6 whole entry): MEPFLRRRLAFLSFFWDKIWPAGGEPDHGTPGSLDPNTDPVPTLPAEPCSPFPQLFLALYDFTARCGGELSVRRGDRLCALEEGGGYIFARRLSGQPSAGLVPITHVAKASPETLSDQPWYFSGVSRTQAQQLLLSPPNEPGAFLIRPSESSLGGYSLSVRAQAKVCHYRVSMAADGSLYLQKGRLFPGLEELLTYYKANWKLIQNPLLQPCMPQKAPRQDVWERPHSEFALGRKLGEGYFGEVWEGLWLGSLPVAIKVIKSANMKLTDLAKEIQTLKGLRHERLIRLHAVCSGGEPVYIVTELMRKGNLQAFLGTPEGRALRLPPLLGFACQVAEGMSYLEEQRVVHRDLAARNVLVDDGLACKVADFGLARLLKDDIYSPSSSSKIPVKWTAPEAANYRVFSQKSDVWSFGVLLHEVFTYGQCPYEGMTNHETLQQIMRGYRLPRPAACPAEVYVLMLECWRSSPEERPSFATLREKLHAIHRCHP

TRKA = molecular target: T10, TRKA (Homo sapiens, UniProt P04629); test: KINOMEscan ScanTK; assay type: binding
T10 construct: purchased Eurofins DiscoverX KINOMEscan (scanTK)
T10 sequence (P04629 33-796): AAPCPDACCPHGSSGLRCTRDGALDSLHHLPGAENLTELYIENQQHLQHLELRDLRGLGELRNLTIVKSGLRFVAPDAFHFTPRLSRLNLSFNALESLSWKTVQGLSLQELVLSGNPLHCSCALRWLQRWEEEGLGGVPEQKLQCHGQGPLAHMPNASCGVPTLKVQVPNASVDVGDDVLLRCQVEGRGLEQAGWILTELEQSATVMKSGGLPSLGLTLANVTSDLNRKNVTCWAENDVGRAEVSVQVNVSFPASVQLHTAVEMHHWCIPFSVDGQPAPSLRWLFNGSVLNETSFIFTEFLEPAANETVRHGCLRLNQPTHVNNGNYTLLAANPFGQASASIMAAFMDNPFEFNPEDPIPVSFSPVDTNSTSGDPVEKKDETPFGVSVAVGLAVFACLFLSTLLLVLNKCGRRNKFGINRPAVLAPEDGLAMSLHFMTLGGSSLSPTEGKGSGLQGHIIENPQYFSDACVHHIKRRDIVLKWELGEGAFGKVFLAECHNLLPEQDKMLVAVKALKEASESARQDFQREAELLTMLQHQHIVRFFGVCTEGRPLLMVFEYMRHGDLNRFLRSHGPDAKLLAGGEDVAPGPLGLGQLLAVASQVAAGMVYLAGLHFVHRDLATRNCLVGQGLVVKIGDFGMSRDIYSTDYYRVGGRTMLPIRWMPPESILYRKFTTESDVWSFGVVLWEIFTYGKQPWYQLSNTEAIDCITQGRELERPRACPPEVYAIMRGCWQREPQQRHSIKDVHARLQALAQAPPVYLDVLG

BTK Y223 phosphorylation = test: Immunoblotting, anti-IgM-induced signaling in OCI-LY7 cells; conditions: 500 nM, 1 h
Method: We also investigated the effects of the compounds (at 500 nM) on sIgM signaling by analyzing the phosphorylation status of key signaling molecules activated downstream of the BCR.
Secondary antibodies were horseradish peroxidase-conjugated antibodies (GE Healthcare). Images were captured using the Amersham ImageQuant 800 System and quantified using ImageJ (http://imagej.nih.gov/ij/). Expression of phosphorylated proteins was normalized to the equivalent total protein with values for DMSO/anti-IgM set to 100%.

[3] = @1000nM, TRKA, read-out: %Control
[4] = TRKA, read-out: %Control @1000nM

Row | Structure (SMILES) | difference in %Control from compound Ib at 1 µM ([1]; @1000nM) [%] | remaining binding at 1 µM ([1]; @1000nM, read-out: %Control) [%] | remaining binding at 1 µM ([1]; read-out: %Control @1000nM) [%] | difference in %Control versus reference Ib at 1 µM ([2]; @1000nM) [%] | remaining binding at 1 µM ([2]; @1000nM, read-out: %Control) [%] | remaining binding at 1 µM ([2]; read-out: %Control @1000nM) [%] | difference in %Control vs reference Ib at 1 µM (BLK; @1000nM) [%] | remaining binding at 1 µM (BLK; @1000nM, read-out: %Control) [%] | remaining binding at 1 µM (BLK; read-out: %Control @1000nM) [%] | difference in % of control versus compound Ib at 1 µM (EGFR(L861Q); @1000nM) [%] | remaining binding at 1 µM (FLT1; @1000nM, read-out: %Control) [%] | remaining binding at 1 µM (FLT1; read-out: %Control @1000nM) [%] | remaining binding at 1 µM (FLT3; @1000nM, read-out: %Control) [%] | remaining binding at 1 µM (FLT3; read-out: %Control @1000nM) [%] | remaining binding at 1 µM (MERTK; @1000nM, read-out: %Control) [%] | remaining binding at 1 µM (MERTK; read-out: %Control @1000nM) [%] | remaining binding at 1 µM (MET(M1250T); @1000nM, read-out: %Control) [%] | remaining binding at 1 µM (MET(M1250T); read-out: %Control @1000nM) [%] | remaining binding at 1 µM (SRMS; @1000nM, read-out: %Control) [%] | remaining binding at 1 µM (SRMS; read-out: %Control @1000nM) [%] | further results
1 | Cc1cnc(S(C)(=O)=O)nc1N1CCCC(n2nc(-c3ccc(Oc4ccccc4)cc3)c3c(N)ncnc32)C1 (stereo not drawn) [Compound 8a, 1-(1-(5-Methyl-2-(methylsulfonyl)pyrimidin-4-yl)piperidin-3-yl)-3-(4-phenoxyphenyl)-1H-pyrazolo[3,4-d]pyrimidin-4-amine] | 0 | 65 | 65 | 4 | 98 | 98 | 0.05 | 0.1 | 0.1 | 81.2 | 93 | 93 | 54 | 54 | 60 | 60 | 88 | 88 | 16 | 16 | remaining binding at 1 µM (EGFR(L861Q); @1000nM, read-out: %Control): 82%; remaining binding at 1 µM (EGFR(L861Q); read-out: %Control @1000nM): 82%; difference in %Control from compound Ib at 1 µM (FLT1; @1000nM): 21%; difference in %Control from compound Ib at 1 µM (FLT3; @1000nM): 21%; difference in % of control versus compound Ib at 1 µM (TRKA; @1000nM, TRKA): 12%; remaining binding at 1 µM (TRKA; [3]): 97%; remaining binding at 1 µM (TRKA; [4]): 97%
2 | CCOC(=O)c1cnc(S(C)(=O)=O)nc1N1CCC[C@@H](n2nc(-c3ccc(Oc4ccccc4)cc3)c3c(N)ncnc32)C1 [Compound 8c, Ethyl (R)-4-(3-(4-Amino-3-(4-phenoxyphenyl)-1H-pyrazolo[3,4-d]pyrimidin-1-yl)piperidin-1-yl)-2-(methylsulfonyl)pyrimidine-5-carboxylate] | 12 | 77 | 77 | -2 | 92 | 92 | 0.15 | 0.2 | 0.2 | 81.2 | 100 | 100 | 93 | 93 | 71 | 71 | 96 | 96 | 32 | 32 | remaining binding at 1 µM (EGFR(L861Q); @1000nM, read-out: %Control): 82%; remaining binding at 1 µM (EGFR(L861Q); read-out: %Control @1000nM): 82%; difference in %Control from compound Ib at 1 µM (FLT1; @1000nM): 28%; difference in %Control from compound Ib at 1 µM (FLT3; @1000nM): 60%; difference in % of control versus compound Ib at 1 µM (TRKA; @1000nM, TRKA): 8%; remaining binding at 1 µM (TRKA; [3]): 93%; remaining binding at 1 µM (TRKA; [4]): 93%; anti-IgM-induced BTK Y223 phosphorylation (BTK Y223 phosphorylation): selectively reduced BTK Y^223 phosphorylation
3 | CNC(=O)c1cnc(S(C)(=O)=O)nc1N1CCCC(n2nc(-c3ccc(Oc4ccccc4)cc3)c3c(N)ncnc32)C1 (stereo not drawn) [Compound 8d, 4-(3-(4-Amino-3-(4-phenoxyphenyl)-1H-pyrazolo[3,4-d]pyrimidin-1-yl)piperidin-1-yl)-N-methyl-2-(methylsulfonyl)pyrimidine-5-carboxamide] | 9 | 74 | 74 | -1 | 93 | 93 | -0.05 | 0 | 0 | 28.2 | 100 | 100 | 65 | 65 | 49 | 49 | 100 | 100 | 6.5 | 6.5 | remaining binding at 1 µM (EGFR(L861Q); @1000nM, read-out: %Control): 29%; remaining binding at 1 µM (EGFR(L861Q); read-out: %Control @1000nM): 29%; difference in %Control from compound Ib at 1 µM (FLT1; @1000nM): 28%; difference in %Control from compound Ib at 1 µM (FLT3; @1000nM): 32%; difference in % of control versus compound Ib at 1 µM (TRKA; @1000nM, TRKA): -2%; remaining binding at 1 µM (TRKA; [3]): 83%; remaining binding at 1 µM (TRKA; [4]): 83%
4 | C=CC(=O)N1CCC[C@@H](n2nc(-c3ccc(Oc4ccccc4)cc3)c3c(N)ncnc32)C1 [Compound 1g, Ibrutinib, reference compound] | – | – | – | – | – | – | – | 0.05 | 0.05 | – | 72 | 72 | 33 | 33 | 38 | 38 | 96 | 96 | 0 | 0 | inhibition at 1 µM (BLK; ScanTK, 1 μM): > 99%; inhibition at 1 µM (SRMS; read-out: % inhibition, SRMS): > 99%; remaining binding at 1 µM (TRKA; read-out: %Control): 85%; remaining binding at 1 µM (TRKA; read-out: %Control @1000nM): 85%; anti-IgM-induced BTK Y223 phosphorylation (BTK Y223 phosphorylation): strongly inhibited
